Non-standard residues stand in square brackets, D forms with d. No end group written: not given here. T(Sa) = sialic acid threonine lactam (threonine bearing sialic acid, its amine closed onto the sugar)
system: E. coli membrane proteins; experiment: Solid phase screening of Library 2 with labeled E. coli membrane proteins; bound proteins identified by tryptic digest and peptide mass fingerprinting; format: binding, Escherichia coli DH 5α-136; conditions: Library 2 ligand on bead
Experimental: A 400 mL culture of Escherichia coli DH 5α-136 (Carlsberg Research Center Collection) was prepared according to the procedures described in Hanahan, 1985, In: DNA Cloning, Vol 1, Glover, D., ed., IRL Press Ltd, pp. 109-135. […]. The media containing extracellular protein was retained and the pellet washed once with PBS, pH 7.6 (cellular weight=2.22g).
Isolation of E. coli membrane proteins was achieved through modification of published literature procedures: Auer, et al., 2001, Biochemistry, 40:6628-6635, and Molloy, et al., 2000, Eur. J. Biochem. 267:2871-2881. After incubation of E. coli cells for 2 days, washed cells were scraped from plates and centrifuged as described above for Example 10. The cell pellet (approximately 1 g) was suspended in 50 mM Tris HCl, pH 7.5 and pressed (2×) in a French Press at 1500 Psi. The resulting suspension was centrifuged at 2500×g for 10 minutes. The ice cold supernatant was diluted with 2.5 ml of ice-cold 0.1 M sodium carbonate buffer 11 and the solution stirred on ice for 1 hour. Ultracentrifugation was then carried out at 115, 000×g for 1 to 1.5 hours at 4° C., yielding Pellet 1 and Supernatant 1. The membrane pellet 1 was resuspended in 50 mM Tris HCl, pH 7.5 and the pellet was recollected after centrifugation for an additional 20 minutes at 115,000×g, yielding Pellet 2 and supernatant 2. Pellet 2 was solubilized in 50 mM Tris HCl, pH 7.5 containing 10 MM imidazole, 0.5 mM PMSF, 20% glycerol, and 1% Dodecyl Maltoside (DM) or 33 mM Octyl Glucoside (OG) for 30 mninutes at 4° C. The suspension was then centrifuged for 10,000 g for 30 minutes. The pellet and supernatant obtained were labeled Pellet 3 and supernatant 3.
The protein was labeled with amino reactive succinylanthranilate dye (blue) DDM (0.49 mg dye) and OG (0.03 mg dye) according to the same protocol used in the extracellular labeling described above for Example 12. The labeling stopping reaction (hydroxylamine hydrochloride addition) was not used in this case, to avoid dilution of the protein. The mixture was dialyzed overnight against 10 mM PBS buffer, pH 6.8 containing 0.01 MM ZnCl2, 0.01 mM CaCl2, 0.01 mM MnCl2, and 0.01 mM MnSO4, against a three time buffer change.
The ligand library was then washed, and E. coli labeled membrane protein, prepared as described above for Example 13, was added (0.1 ml). The ligand library and protein mixture was incubated overnight at room temperature.
(§1) Ligands can be completely or partially identified by MALDI_TOF-MS whether or not the library is synthesized by ladder synthesis. […] The ligand is cleaved from the resin bead depending on the type of linker used. […] Peptide fragments (ladder synthesis) or single compounds were extracted from the bead with 0.5 AL CH3CN, then 0.5 FL 70% CH3CN/H2O. […] In the case of the acid labile Rink linker (Library 7), the compound was released from the bead by treatment with 95% TFA or 30 min. The TFA solution was evaporated and the cleaved compounds were extracted in 2 μL 70% acetonitrile+0.1% TFA. This mixture was then transferred to a stainless steel disc to which 0.4 μL of CHC matrix+1.0% TFA was added. An additional 0.4 μL of CHC matrix+1.0% TFA was added to complete sample application.
A typical analysis employed 100-300 laser shots. […] A typical analysis employed 200-300 laser shots. The possible identity of the ligand was determined (Narrowed down) by comparing the recorded mass of the ligand with the masses of all possible compounds formed in the library. […]

| Molecule | Identified Protein(s) |
| --- | --- |
| T(Sa)-F-G-L-M | (M). |
| T(Sa)-F-V-W-H | (P). |
| T(Sa)-H-I-G-Y | 16129807/15831818) (LA, M) |
| T(Sa)-H-W-H-L ([T(Sa)]HWHL) | (NaDPH) (gi 2121143). |
| T(Sa)-H-W-V-V | (M). |

system: PE-induced myocyte protein; experiment: Solid phase screening of Library 6 with unlabeled myocyte proteins; silver staining, on-bead tryptic digest; format: binding, neonatal Wistar rats; conditions: PE-Treated Myocytes
Experimental: (§2) Myocytes were prepared from 1 to 5 day old neonatal Wistar rats (University of Copenhagen) according to literature procedure described in Busk et al., 2002, Cardiovasc. Res., 56: 64-75 and plated into eight P10 culture plates at 6 million cells/plate.
Isolated proteins that bound to specific ligands were identified using peptide mass fingerprinting. Mass spectra were recorded on a Bruker Reflex m MALDI time-of-flight mass spectrometer (Bruker-Daltonics, Bremen, Germany) operated in the positive reflectron mode using delayed extraction. Measurements were performed using the following parameters: Power 83-84 V; lens 7.300. The sum of 200-300 shots was used for each spectrum.
The spectra were calibrated using bradykinin peptide. In some cases, internal mass calibration was performed using a porcine trypsin autolysis product Peptide masses were searched against peptide mass maps in the National Center for Biotechnology Information (NCBI) database using the following search engines found on the world wide web (www.) for each of: • MS-FIT (prospector.ucsf.edu/ucsfhtml/msfit.htm), • Profound (129.85.19.192/profound_biniWebProFound.exe), and • MASCOT (matrixscience.com).
A search was performed using the NCBI bacterial (E. coli) database and the mammalian databases for the isolated proteins from the E. coli and myocyte samples, respectively, and the Swiss Prot mammalian databases and the Swiss Prot viral databases were searched to identify the porcine macrophage proteins and proteins, respectively. A molecular mass range was estimated from 0-250 K Da, allowing a mass accuracy that varied from 0.1 Da (some cases 0.3 Da) for each peptide mass. A large pI range from 0-14 or 0-12 was considered for each search. If no proteins matched, the mass window was extended. Partial enzyme cleavages allowing for two missed cleavage sites and modification of cysteine by alkylation were considered in the search approaches. A protein was considered identified if the matched peptides covered at least 30% of the complete sequence. A match of less than 30% was considered in some cases, if prominent peaks were obtained. Usually, four or more peptides were used for identification. In some instances, hypothetical proteins or gene products, such as biochemical material, either RNA or protein, calculated from the expected expression of a gene and to which a function may be assigned based on sequence homology, were identified.
Protein was extracted from myocytes prepared as described above for Example 9, using a new procedure (to preserve the activity of metalloproteases) modified from existing protocols, primarily: Amott, et al., 1998, Anal. Biochem. 258: 1-18. The media was removed from plates and cells were washed with ice cold phosphate buffer (5 ml, 10 mM, pH 7.5, supplemented with 0.15 M NaCl,) to remove traces of media components. The adhered cells were treated for 10 minutes with ice cold phosphate buffer (2 mL, 10 mM, pH 7.5, augmented with 0.15 M NaCl, […] E-64, 10 μg/mL Leupeptin, and 10 μg/mL Pepstatin A). The cells were scraped off the plates and then lysed (on ice) in a sonicator (2×) using 10 seconds off/110 seconds on cycles.
The resulting suspension was augmented with CHAPS (1% w/v), KCl (50 mM), NaCl (0.5 M), ZnCl2 (0.1 mM), DTT (5 mM), and urea (2 M). After 10-15 minutes on ice, the solution was centrifuged for 10 minutes at 15,000 rpm at 4° C. The supernatant was removed and protein content quantified using the NanoOrange Protein test (Molecular Probes, Eugene, Oreg.): Total protein recovered: 195 μg for PE-induced cells and 200 μg for basal cells.
The protein solutions were dialyzed extensively against 20 mM MES (2-[N-Morpholino]ethanesulfonic acid) buffer pH 6.0, supplemented with 0.15 M NaCl and 1 mM ZnCl2 to remove excess detergent and urea. […]

| Molecule | Identified Protein(s) |
| --- | --- |
| CC(C)C(NC(CCCCN)C(=O)NCC(=O)O)C(C)C (centres unmarked) | Glycogen ssynthase kinase-3 beta factor (AQ9WV60). |
| CCOC(=O)C(CCc1ccccc1)NC(CCCCN)C(=O)N1CCC[C@H]1C(=O)O (some centres unmarked) [drawing 175] | Angiotensin converting enzyme (P22967); U2 nuclear ribonucleoprotein auxiliary factor (gi 2842676). |
| CCCCCCNC(=O)C(CCCCN)NC(C(C)C)C(C)C (centres unmarked) [drawing 179] | Heat Shock protein 70 kDa protein 12A (Q8KOU4). |

system: normal/healthy myocyte proteins; experiment: Solid phase screening of small molecule biaryl Library 7 with labeled myocyte proteins; format: binding, neonatal Wistar rats; conditions: Normal Myocytes
Experimental: as §2
In another case, fluorescent dye Cyanine 3 (Cy 3) (Molecular Probes) was used to label the healthy/basal cells while Cyanine 2 (Cy 2) (Molecular Probes) was used to label the PE-treated cells. The labeling procedures were carried out according to the manufacturer's protocol. The protein solutions (0.35 mL, 100 μg for PE cells and 0.41 mL, 100 μg for basal cells) were dialyzed against a solution of 10 mM phosphate buffer, 0.15 M NaCl, pH 7.5 and then 1 M NaHCO3 (0.03-0.04 mL) was added to obtain a final pH between 8.0-9.0. For efficient labeling, […] fluor (5 μL solution was prepared by addition of […] of reconstituted fluorophore solution [1 nmol μL] and 3 μL of dry DMF) was used to label 50 μg of protein. The fluorophore and the protein solution are mixed thoroughly by vortexing. The samples are then centrifuged briefly in a microfuge and left on ice for 30 min in the dark. To stop the reaction, 10 mM lysine (1 μL) was added to the samples and the samples were mixed by vortexing and centrifuged briefly in a microfuge. The samples were left on ice for 10 min in the dark. The labeled protein solutions were dialyzed extensively against 10 mM phosphate buffer, 0.15 M NaCl, pH 7.5, to remove excess dye. Labeled samples were stored for at −70° C. in the dark until further use.
Alternatively, the fluorescent ligand library beads containing bound protein obtained as described in Examples 47, 48, 49 and 51 were sorted using a COPAS (250) NF Bead Sorter (Union Biometrica, Somerville, Mass.) equipped with a dual detector. Both the cyanine dyes used in the labeling procedure, namely Cy 2 (emission wavelength—510 nm) and Cy 3 (emission wavelength—570 nm) were simultaneously excited at […] The bead selection window was then set-up such that all beads containing significant green fluorescence and no red flourescence were isolated. The unselected beads were then resorted to obtain beads containing red fluorescence (proteins from basal cells). The selected red and green fluorescent beads were then sorted into brightly and less brightly fluorescent beads, to give an indication of either the strength of binding of the ligand to a particular protein or the amount of protein present in the sample binding to the ligand.
as §1
A typical analysis employed 100-300 laser shots. […] The possible identity of the ligand was determined (Narrowed down) by comparing the recorded mass of the ligand with the masses of all possible compounds formed in the library. […]

| Molecule | Identified Protein(s) |
| --- | --- |
| COc1ccc(Br)c(OC)c1C(=O)N[C@@H](Cc1c[nH]c2ccccc12)C(=O)O | Cutochrome P450 2C31 (CYPIIC31) (CPCV_CAPAE,Q29478); Fatty acid-binding protein, (FABPI, P0293); Similar to the alpha subunit of protein kinase CK2 (gi 28527943). |
| O=C(O)CC(NC(=O)c1ccc(-c2ccco2)o1)c1ccc(-c2ccccc2)cc1 (centres unmarked) | Thyroid receptor interacting protein 11 (TRIP- 11,Q15643); Unnamed protein product (gi 26338976). |
| O=C(NC1(C(=O)O)CCc2ccccc2C1)c1cccc(Br)n1 (centres unmarked) | Gap junction beta-5 protein (Connexin 31.1), (Q02739); Hypothetical protein XP1'288677 )gi 208598980). |
| COc1ccc(Br)c(OC)c1C(=O)N1CCC(C(=O)O)(c2ccccc2)CC1 [drawing 202] | Centaurin gamma (3) (Q96P47); Poly [ADP-ribose] poly- merase-1 (PARP-1) (ADPRT) (NAD(+) ADP- ribosyltransferase-1) (Poly[ADP-ribose] synthease-1) (P09874); Aortic preferentially expressed protein 1 (APEG-1) Aortic preferentially expressed protein 1 (APG1_RAT, Q63638). |
| COc1ccc(Br)c(OC)c1C(=O)N1CCC(C(=O)O)(c2ccccc2)CC1 [drawing 209] | Cutochrome P450 2C31 (CYPIIC31) (CPCV_CAPAE,Q29478); Fatty acid-binding protein, (FABPI, P0293); Similar to the alpha subunit of protein kinase CK2 (gi 28527943). |

system: Serum induced Myocytes proteins; experiment: Solid phase screening of Library 5 with labeled myocyte protein; format: binding, neonatal Wistar rats; conditions: not given

| Molecule | Identified Protein(s) |
| --- | --- |
| CC(=O)N(C[C@@H]1CN(Cc2ccc(C(=O)O)cc2)[C@H]2c3ccccc3C(=O)N12)C1(C(=O)O)CCCC1 [HY6] | Myosin chain (Q63358); NF-kappa B-repressing factor (Transcription factor ITBA4 protein) (O15226). |
| CC(=O)N(C[C@@H]1CN(C(C)C)[C@H]2c3ccccc3C(=O)N12)[C@H]1CCCCN(CC(=O)O)C1=O [HY7] | Zinc finger protein 339 (Q9BRPO); DNA repair protein RAD52 homolog (P43351). |
| CCC(C)C(=O)N(C[C@@H]1CN(C(C)C)[C@H]2c3ccccc3C(=O)N12)[C@H]1CCCCN(CC(=O)O)C1=O (some centres unmarked) [HY8] | Zinc finger protein 339 (Q9BRPO); DNA repair protein RAD52 homolog (P43351). |
| CC(C)N1CCCC(CN[C@H]2CCCCN(CC(=O)O)C2=O)N2C(=O)c3ccccc3[C@H]12 (some centres unmarked) [HY9] | Zinc finger protein 339 (Q9BRPO); DNA repair protein RAD52 homolog (P43351). |
